Measurements published in the supplement of paper PMC8920030.

What was measured:
Conditions in all cases: growth mode: biofilm, 24 h; exposure time: 24 h
[1] = compound: T1, CCC(C)CCCC(=O)N[C@@H](CCN)C(=O)N[C@H](C(=O)N[C@@H](CCN)C(=O)N[C@H]1CCNC(=O)[C@H]([C@@H](C)O)NC(=O)[C@H](CCN)NC(=O)[C@H](CCN)NC(=O)[C@H](CC(C)C)NC(=O)[C@@H](CC(C)C)NC(=O)[C@H](CCN)NC1=O)[C@@H](C)O [colistin]; assay: minimum concentration eradicating biofilm below detection limit (MCK-E); higher = more biofilm tolerance
Description: (§1)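 Clinical P. aeruginosa isolates were grown as static biofilms for 24 h at 37 °C in LB in half-area 96-well plates, then exposed for 24 h to colistin at 1, 4, 16, 64, 256 or […]. Surviving CFU were counted by spotting serial dilutions. MCK is the lowest tested concentration giving the stated log reduction in CFU versus an untreated control; '>1024' means the reduction was not reached at the top dose, and 1 is the lowest dose tested (≤1).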

[2] = compound: T1, colistin; assay: minimum concentration of killing, 1-log CFU reduction of biofilm (MCK90); higher = more biofilm tolerance
Description: as §1

[3] = compound: T1, colistin; assay: minimum concentration of killing, 2-log CFU reduction of biofilm (MCK99); higher = more biofilm tolerance
Description: as §1

[4] = compound: T2, NC[C@H]1O[C@H](O[C@H]2[C@H](O)[C@@H](O[C@H]3O[C@H](CO)[C@@H](O)[C@H](N)[C@H]3O)[C@H](N)C[C@@H]2N)[C@H](N)C[C@@H]1O [tobramycin]; assay: minimum concentration of killing, 4-log CFU reduction of biofilm (MCK99.99); higher = more biofilm tolerance
Description: as §1, with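 “tobramycin” for “colistin”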

[5] = compound: T2, tobramycin; assay: minimum concentration of killing, 2-log CFU reduction of biofilm (MCK99); higher = more biofilm tolerance
Description: as §1, with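 “tobramycin” for “colistin”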

[6] = compound: T2, tobramycin; assay: minimum concentration of killing, 1-log CFU reduction of biofilm (MCK90); higher = more biofilm tolerance
Description: as §1, with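 “tobramycin” for “colistin”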

[7] = compound: T1, colistin; assay: minimum concentration of killing, 4-log CFU reduction of biofilm (MCK99.99); higher = more biofilm tolerance
Description: as §1

[8] = compound: T2, tobramycin; assay: minimum concentration eradicating biofilm below detection limit (MCK-E); higher = more biofilm tolerance
Description: as §1, with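 “tobramycin” for “colistin”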

Test System | minimum concentration eradicating biofilm below detection limit [1] [µg/mL] | minimum concentration of killing [2] [µg/mL] | minimum concentration of killing [3] [µg/mL] | minimum concentration of killing [4] [µg/mL] | minimum concentration of killing [5] [µg/mL] | minimum concentration of killing [6] [µg/mL] | minimum concentration of killing [7] [µg/mL] | minimum concentration eradicating biofilm below detection limit [8] [µg/mL]
Pseudomonas aeruginosa clinical isolate ESP031 | 256 | 256 | 256 | 1020 | 1020 | 1020 | 256 | 1020
Pseudomonas aeruginosa clinical isolate ESP046 | 256 | 256 | 256 | 1020 | 1020 | 16 | 256 | 1020
Pseudomonas aeruginosa clinical isolate ESP054 | 256 | 64 | 256 | 256 | 4 | 4 | 256 | 256
Pseudomonas aeruginosa clinical isolate F1864 | 1020 | 256 | 256 | 1020 | 1020 | 1020 | 256 | > 1020
Pseudomonas aeruginosa clinical isolate ESP021 | 256 | 16 | 64 | 64 | 4 | 4 | 256 | 64
Pseudomonas aeruginosa clinical isolate ESP070 | 1020 | 64 | 256 | > 1020 | 1020 | 1020 | 1020 | > 1020
Pseudomonas aeruginosa clinical isolate ESP002 | 256 | 4 | 64 | 256 | 256 | 256 | 256 | 256
Pseudomonas aeruginosa clinical isolate CH2677 | 256 | 64 | 64 | 1020 | 1020 | 256 | 256 | > 1020
Pseudomonas aeruginosa clinical isolate ESP066 | 1020 | 256 | 256 | > 1020 | 256 | 256 | 1020 | > 1020
Pseudomonas aeruginosa clinical isolate CH2527 | 256 | 256 | 256 | 256 | 64 | 64 | 256 | 1020
Pseudomonas aeruginosa clinical isolate ESP091 | 256 | 256 | 256 | 1020 | 64 | 64 | 256 | 1020
Pseudomonas aeruginosa clinical isolate CH2672 | 256 | 256 | 256 | 256 | 64 | 16 | 256 | > 1020
Pseudomonas aeruginosa clinical isolate F1823 | 1020 | 64 | 256 | > 1020 | 64 | 4 | 256 | > 1020
Pseudomonas aeruginosa clinical isolate F1959 | 64 | 64 | 64 | 1020 | 64 | 16 | 64 | > 1020
Pseudomonas aeruginosa clinical isolate CH2598 | 256 | 256 | 256 | 256 | 16 | 4 | 256 | 256
Pseudomonas aeruginosa clinical isolate ESP032 | 256 | 256 | 256 | 1020 | 256 | 256 | 256 | > 1020
Pseudomonas aeruginosa clinical isolate ESP088 | 256 | 64 | 64 | > 1020 | 1020 | 256 | 256 | > 1020
Pseudomonas aeruginosa clinical isolate CH5597 | 64 | 64 | 64 | 256 | 64 | ≤ 1 | 64 | 256
